Experimental data from ChEMBL document CHEMBL5344441, “Discovery and Preclinical Pharmacology of NX-2127, an Orally Bioavailable Degrader of Bruton's Tyrosine Kinase with Immunomodulatory Activity for the Treatment of Patients with B Cell Malignancies” (J Med Chem, 2024).
≈ marks a conversion by molar mass, not a printed value. Blank lines part the entries; values can stand above or below the compound they belong to.

Legend:
[1] = target: T1, Protein cereblon/Tyrosine-protein kinase BTK (Homo sapiens, UniProt Q06187+Q96SW2); assay: PROTAC activity at CRBN/BTK in human TMD8 cells assessed as maximal degradation of BTK protein incubated for 4 hrs by HTRF assay relative to control; type: cell-based
Target sequence in this assay (Q06187 2-659 limits assumed): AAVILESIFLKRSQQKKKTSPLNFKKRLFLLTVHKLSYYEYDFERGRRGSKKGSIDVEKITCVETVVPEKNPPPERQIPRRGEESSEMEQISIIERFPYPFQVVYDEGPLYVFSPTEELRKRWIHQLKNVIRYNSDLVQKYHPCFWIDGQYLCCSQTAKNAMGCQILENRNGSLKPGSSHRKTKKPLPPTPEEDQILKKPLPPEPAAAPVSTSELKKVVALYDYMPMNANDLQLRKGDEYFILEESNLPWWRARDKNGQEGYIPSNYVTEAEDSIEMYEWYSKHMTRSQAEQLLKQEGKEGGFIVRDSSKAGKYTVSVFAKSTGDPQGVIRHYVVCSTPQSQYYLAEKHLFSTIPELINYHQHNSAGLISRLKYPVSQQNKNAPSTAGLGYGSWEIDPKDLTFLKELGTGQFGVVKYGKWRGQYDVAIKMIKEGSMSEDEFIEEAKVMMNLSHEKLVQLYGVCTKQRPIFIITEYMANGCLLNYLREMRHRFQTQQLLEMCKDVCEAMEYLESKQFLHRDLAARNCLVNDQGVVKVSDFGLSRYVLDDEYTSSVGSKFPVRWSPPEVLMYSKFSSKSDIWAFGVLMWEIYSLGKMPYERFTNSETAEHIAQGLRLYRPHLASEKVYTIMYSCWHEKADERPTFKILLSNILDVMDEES
Target sequence in this assay (Q96SW2 whole entry partner): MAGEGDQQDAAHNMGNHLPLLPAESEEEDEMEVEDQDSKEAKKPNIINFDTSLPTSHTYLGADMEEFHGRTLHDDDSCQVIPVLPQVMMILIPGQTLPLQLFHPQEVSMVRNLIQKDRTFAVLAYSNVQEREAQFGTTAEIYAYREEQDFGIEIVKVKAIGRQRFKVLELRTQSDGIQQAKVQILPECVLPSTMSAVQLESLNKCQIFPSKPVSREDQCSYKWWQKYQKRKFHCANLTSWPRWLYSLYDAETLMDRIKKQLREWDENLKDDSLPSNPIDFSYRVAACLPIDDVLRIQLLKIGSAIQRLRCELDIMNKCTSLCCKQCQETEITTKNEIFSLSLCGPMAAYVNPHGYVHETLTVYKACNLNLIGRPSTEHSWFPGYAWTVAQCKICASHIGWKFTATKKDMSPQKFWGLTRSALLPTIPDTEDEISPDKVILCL

[2] = target: T1, Protein cereblon/Tyrosine-protein kinase BTK; assay: PROTAC activity at CRBN/BTK in human TMD8 cells assessed as degradation of BTK protein incubated for 4 hrs by HTRF assay; type: cell-based
Target sequence in this assay (Q06187 whole entry): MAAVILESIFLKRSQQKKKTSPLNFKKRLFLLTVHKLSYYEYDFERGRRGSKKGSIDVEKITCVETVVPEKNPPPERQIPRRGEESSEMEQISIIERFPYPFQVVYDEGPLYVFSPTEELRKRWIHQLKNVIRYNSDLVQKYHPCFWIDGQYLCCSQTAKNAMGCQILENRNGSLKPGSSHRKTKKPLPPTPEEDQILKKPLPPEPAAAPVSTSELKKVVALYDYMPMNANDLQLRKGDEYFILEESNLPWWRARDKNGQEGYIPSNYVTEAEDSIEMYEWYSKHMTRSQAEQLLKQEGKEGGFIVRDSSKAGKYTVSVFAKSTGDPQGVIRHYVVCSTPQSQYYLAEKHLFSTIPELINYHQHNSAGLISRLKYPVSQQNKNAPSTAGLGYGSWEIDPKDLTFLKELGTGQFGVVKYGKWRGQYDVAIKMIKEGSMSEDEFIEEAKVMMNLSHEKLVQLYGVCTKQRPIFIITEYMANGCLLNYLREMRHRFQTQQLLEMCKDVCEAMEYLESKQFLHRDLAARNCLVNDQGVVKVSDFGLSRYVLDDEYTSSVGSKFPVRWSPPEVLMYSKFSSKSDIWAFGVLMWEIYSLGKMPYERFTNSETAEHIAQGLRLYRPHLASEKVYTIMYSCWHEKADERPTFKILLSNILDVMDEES
Target sequence in this assay (Q96SW2 whole entry): as the sequence (Q96SW2 whole entry partner) above

[3] = target: T2, Protein cereblon/Tyrosine-protein kinase BTK (Mus musculus) (UniProt P35991+Q8C7D2); assay: In vivo protac activity at CRBN/BTK in BALB/c mouse assessed as remaining BTK protein in blood at 3 mg/kg,po administration measured after 6 hrs by flow cytomtery relative to control; type: functional, organism-based
T2 sequence (P35991 whole entry, looked up): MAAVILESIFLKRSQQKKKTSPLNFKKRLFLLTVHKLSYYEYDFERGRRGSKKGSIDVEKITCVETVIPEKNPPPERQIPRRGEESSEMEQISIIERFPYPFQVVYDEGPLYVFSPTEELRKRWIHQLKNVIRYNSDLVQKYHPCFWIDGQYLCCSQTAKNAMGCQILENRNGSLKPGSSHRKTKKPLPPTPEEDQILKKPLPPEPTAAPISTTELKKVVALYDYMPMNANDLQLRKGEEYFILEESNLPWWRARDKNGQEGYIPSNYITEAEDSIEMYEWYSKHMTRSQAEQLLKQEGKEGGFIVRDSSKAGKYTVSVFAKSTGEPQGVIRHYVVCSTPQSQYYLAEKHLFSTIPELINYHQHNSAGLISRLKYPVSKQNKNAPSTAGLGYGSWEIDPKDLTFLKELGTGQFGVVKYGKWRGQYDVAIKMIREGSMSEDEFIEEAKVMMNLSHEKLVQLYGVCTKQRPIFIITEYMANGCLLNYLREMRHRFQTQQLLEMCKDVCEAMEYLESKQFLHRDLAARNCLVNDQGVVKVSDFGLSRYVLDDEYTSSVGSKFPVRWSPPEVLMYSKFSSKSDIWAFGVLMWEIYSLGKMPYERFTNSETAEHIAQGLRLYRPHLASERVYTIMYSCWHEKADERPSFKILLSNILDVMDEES
T2 sequence (Q8C7D2 whole entry, looked up): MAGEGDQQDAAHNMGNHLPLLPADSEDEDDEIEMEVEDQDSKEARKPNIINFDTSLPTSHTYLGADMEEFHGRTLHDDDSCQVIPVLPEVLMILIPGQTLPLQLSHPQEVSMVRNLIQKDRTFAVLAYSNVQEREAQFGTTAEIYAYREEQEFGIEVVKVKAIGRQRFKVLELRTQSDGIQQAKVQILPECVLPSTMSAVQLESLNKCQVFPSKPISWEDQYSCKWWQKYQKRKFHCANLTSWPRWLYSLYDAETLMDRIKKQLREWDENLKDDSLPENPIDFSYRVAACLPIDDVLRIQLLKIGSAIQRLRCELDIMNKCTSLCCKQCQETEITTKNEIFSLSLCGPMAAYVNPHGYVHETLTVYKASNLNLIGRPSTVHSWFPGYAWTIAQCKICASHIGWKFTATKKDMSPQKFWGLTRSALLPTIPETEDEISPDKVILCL

[4] = target: T1, Protein cereblon/Tyrosine-protein kinase BTK; assay: PROTAC activity at CRBN/BTK in human Ramos cells assessed as degradation of BTK protein incubated for 4 hrs by HTRF assay; type: cell-based
Target sequence in this assay (Q06187 whole entry): as the sequence (Q06187 whole entry) above
Target sequence in this assay (Q96SW2 whole entry): as the sequence (Q96SW2 whole entry partner) above

[5] = Oral bioavailability in mouse at 10 mg/kg; type: ADME, organism-based; details: in vivo
[6] = Efflux ratio of apparent permeability in human Caco-2 cells; type: ADME, cell-based
[7] = Plasma protein binding in dog; type: ADME, cell-free, Canis lupus familiaris; details: read-out: PPB (converted)
[8] = Ratio of drug concentration in cynomolgus monkey blood to plasma; type: ADME, cell-free, Macaca fascicularis; details: whole blood
[9] = Plasma protein binding in cynomolgus monkey; type: ADME, cell-free, Macaca fascicularis; details: read-out: PPB (converted)
[10] = Ratio of drug concentration in mouse blood to plasma; type: ADME, cell-free; details: whole blood
[11] = target: T2, Protein cereblon/Tyrosine-protein kinase BTK (Mus musculus); assay: In vivo protac activity at CRBN/BTK in BALB/c mouse assessed as remaining BTK protein in splenocyte at 3 mg/kg,po administration measured after 6 hrs by HTRF assay relative to control; type: functional, organism-based
[12] = Aqueous solubility of the compound in PBS at pH 7.4; type: physicochemical
[13] = Plasma protein binding in rat; type: ADME, cell-free; details: read-out: PPB
[14] = Plasma protein binding in human; type: ADME, cell-free; details: read-out: PPB (converted)
[15] = target: Protein cereblon/Tyrosine-protein kinase BTK (Homo sapiens, UniProt Q06187+Q96SW2, C481S); assay: PROTAC activity at CRBN/BTK C481S mutant in human TMD8 cells assessed as degradation of BTK protein incubated for 4 hrs by HTRF assay; type: cell-based
Chain of Protein cereblon/Tyrosine-protein kinase BTK (Homo sapiens, UniProt Q06187+Q96SW2, C481S) (Q06187 2-659 C481S limits assumed, stated change not applied): as the sequence (Q06187 2-659 limits assumed) above, with C480S counted along it
Chain of Protein cereblon/Tyrosine-protein kinase BTK (Homo sapiens, UniProt Q06187+Q96SW2, C481S) (Q96SW2 whole entry, stated change not applied): as the sequence (Q96SW2 whole entry partner) above

[16] = test system: Protein cereblon/Tyrosine-protein kinase BTK (Homo sapiens), Q06187+Q96SW2 [C481S]; assay: PROTAC activity at CRBN/BTK C481S mutant in human TMD8 cells assessed as maximal degradation of BTK protein incubated for 4 hrs by HTRF assay relative to control; type: cell-based
[17] = Observed clearance in mouse at 1 mg/kg,iv; type: ADME, organism-based; details: in vivo
[18] = Ratio of drug concentration in rat blood to plasma; type: ADME, cell-free; details: whole blood
[19] = target: Cereblon/Ikaros (Homo sapiens, UniProt Q96SW2+Q13422); assay: PROTAC activity at CRBN/IKZF1 in human T cell assessed as degradation of IKZF1 protein incubated for 24 hrs by flow cytometry; type: cell-based
Chain of Cereblon/Ikaros (Q96SW2 whole entry): as the sequence (Q96SW2 whole entry partner) above
Chain of Cereblon/Ikaros (Q13422 whole entry): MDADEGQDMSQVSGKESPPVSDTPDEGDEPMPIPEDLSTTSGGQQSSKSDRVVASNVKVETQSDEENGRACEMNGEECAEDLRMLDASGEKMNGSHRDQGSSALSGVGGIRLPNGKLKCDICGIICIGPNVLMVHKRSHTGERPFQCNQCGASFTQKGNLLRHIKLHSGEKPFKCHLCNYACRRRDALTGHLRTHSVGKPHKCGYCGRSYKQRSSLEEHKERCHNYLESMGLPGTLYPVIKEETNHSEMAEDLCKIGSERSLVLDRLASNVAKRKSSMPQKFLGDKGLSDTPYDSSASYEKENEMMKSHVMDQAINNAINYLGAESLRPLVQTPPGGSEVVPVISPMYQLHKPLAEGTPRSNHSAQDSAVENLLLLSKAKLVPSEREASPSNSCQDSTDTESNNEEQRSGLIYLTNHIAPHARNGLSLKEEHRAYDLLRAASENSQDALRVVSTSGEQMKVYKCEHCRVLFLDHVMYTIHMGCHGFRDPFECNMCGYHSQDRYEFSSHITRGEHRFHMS

[20] = AUC in mouse at 10 mg/kg,po; type: ADME, organism-based; design: dose 10 mg/kg, route po; details: in vivo
[21] = Apparent permeability across apical to basolateral side in human Caco-2 cells; type: ADME, cell-based
[22] = Ratio of drug concentration in dog blood to plasma; type: ADME, cell-free, Canis lupus familiaris; details: whole blood
[23] = target: T3, Protein cereblon/Zinc finger protein Aiolos (Homo sapiens, UniProt Q96SW2+Q9UKT9); assay: PROTAC activity at CRBN/IKZF3 in human T cell assessed as maximal degradation of IKZF3 protein incubated for 24 hrs by flow cytometry relative to control; type: cell-based
Target sequence in this assay (Q96SW2 whole entry, looked up): as the sequence (Q96SW2 whole entry partner) above
Target sequence in this assay (Q9UKT9 whole entry, looked up): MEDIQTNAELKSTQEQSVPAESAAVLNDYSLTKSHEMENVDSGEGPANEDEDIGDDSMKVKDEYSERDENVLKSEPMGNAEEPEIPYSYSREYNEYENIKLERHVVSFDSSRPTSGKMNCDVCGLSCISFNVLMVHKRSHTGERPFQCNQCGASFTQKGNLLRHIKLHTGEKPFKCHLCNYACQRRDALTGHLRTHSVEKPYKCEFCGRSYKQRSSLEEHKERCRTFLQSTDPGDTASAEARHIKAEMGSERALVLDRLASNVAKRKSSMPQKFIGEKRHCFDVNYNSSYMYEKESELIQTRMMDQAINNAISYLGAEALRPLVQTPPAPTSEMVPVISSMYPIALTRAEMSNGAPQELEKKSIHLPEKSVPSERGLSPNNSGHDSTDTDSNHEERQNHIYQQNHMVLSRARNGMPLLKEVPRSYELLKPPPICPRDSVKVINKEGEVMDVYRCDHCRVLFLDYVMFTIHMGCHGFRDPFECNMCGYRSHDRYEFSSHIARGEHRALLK

[24] = Plasma protein binding in mouse; type: ADME, cell-free; details: read-out: PPB
[25] = target: T1, Protein cereblon/Tyrosine-protein kinase BTK; assay: PROTAC activity at CRBN/BTK in human Ramos cells assessed as maximal degradation of BTK protein incubated for 4 hrs by HTRF assay relative to control; type: cell-based
Target sequence in this assay (Q06187 2-659 limits assumed): as the sequence (Q06187 2-659 limits assumed) above
Target sequence in this assay (Q96SW2 whole entry partner): as the sequence (Q96SW2 whole entry partner) above

[26] = Lipophilicity, logD of compound at pH 7.4; type: physicochemical; details: buffer
[27] = Ratio of drug concentration in human blood to plasma; type: ADME, cell-free; details: whole blood
[28] = target: T3, Protein cereblon/Zinc finger protein Aiolos; assay: PROTAC activity at CRBN/IKZF3 in human T cell assessed as degradation of IKZF3 protein incubated for 24 hrs by flow cytometry; type: cell-based
Target sequence in this assay (Q96SW2 whole entry): as the sequence (Q96SW2 whole entry partner) above
Target sequence in this assay (Q9UKT9 whole entry): as the sequence (Q9UKT9 whole entry, looked up) above

DC50 [4]: 0.9 nM | Emax [1]: 96% | DC50 [2]: 1.3 nM | Activity [11]: 18% | Emax [25]: 96%
SMILES: CN1CCN([C@@H]2CCCN(c3cnc(C(N)=O)c(Nc4ccc(N5CCC6(CC5)CCN(c5ccc7c(c5)C(=O)N(C5CCC(=O)NC5=O)C7=O)CC6)cc4)n3)C2)C1=O (stereo partly specified)

Emax [1]: 50%
SMILES: CN1CCN([C@@H]2CCCN(c3cnc(C(N)=O)c(Nc4ccc(N5CCC6(CC5)CN(c5cccc7c5C(=O)N(C5CCC(=O)NC5=O)C7=O)C6)cc4)n3)C2)C1=O (stereo partly specified)

Emax [1]: 94% | DC50 [2]: 4.3 nM | Activity [3]: 96%
SMILES: CN1CCN([C@@H]2CCCN(c3cnc(C(N)=O)c(Nc4ccc(N5CCC6(CCN(c7ccc8c(c7)C(=O)N(C7CCC(=O)NC7=O)C8=O)CC6)CC5)nc4)n3)C2)C1=O (stereo partly specified)

Emax [1]: 95% | DC50 [2]: 1.7 nM | Activity [3]: 24%
SMILES: NC(=O)c1ncc(-c2nccs2)nc1Nc1ccc(C2CCN(C[C@H]3CCN(c4ccc5c(c4)C(=O)N(C4CCC(=O)NC4=O)C5=O)C3)CC2)cc1 (stereo partly specified)

DC50 [4]: 0.9 nM | DC50 [28]: 28 nM | Emax [1]: 96% | DC50 [2]: 0.53 nM | Emax [23]: 79% | Emax [25]: 95% | Activity [3]: 26%
SMILES: CN1CCN([C@@H]2CCCN(c3cnc(C(N)=O)c(Nc4ccc(C5CN(C6CCN(c7ccc8c(c7)C(=O)N(C7CCC(=O)NC7=O)C8=O)CC6)C5)cc4)n3)C2)C1=O (stereo partly specified)

DC50 [4]: 2880 nM | Emax [25]: 51%
SMILES: Cc1cccc(C[C@@H](NC(=O)c2ccc3[nH]ncc3c2)C(=O)N2Cc3[nH]c4ccccc4c3C[C@@H]2C(=O)NCCOCCOCCOCCOCCOCCOCCOCCNc2cccc3c2C(=O)N(C2CCC(=O)NC2=O)C3=O)c1 (stereo partly specified)

Continued, compound first:

SMILES: CN1CCN([C@@H]2CCCN(c3cnc(C(N)=O)c(Nc4cnn(C5CCN(CC6CCN(c7ccc8c(c7)C(=O)N(C7CCC(=O)NC7=O)C8=O)CC6)CC5)c4)n3)C2)C1=O (stereo partly specified)
Emax [1]: 96% | DC50 [2]: 0.63 nM | Activity [3]: 48%

SMILES: CN1CCN([C@@H]2CCCN(c3cnc(C(N)=O)c(Nc4ccc(C5CCN(C[C@H]6CCN(c7ccc8c(c7)C(=O)N(C7CCC(=O)NC7=O)C8=O)C6)CC5)cc4)n3)C2)C1=O (stereo partly specified)
DC50 [4]: 0.5 nM | bioavailability [5]: 5.4% | efflux ratio [6]: > 84 | fraction unbound [7]: 0.031 | blood plasma ratio [8]: 11 | Emax [1]: 97% | fraction unbound [9]: 0.025 | DC50 [2]: 0.35 nM | blood plasma ratio [10]: 1.1 | Activity [11]: 32% | solubility [12]: 0.3 µM (≈ 0.245 µg/mL) | fraction unbound [13]: < 0.015 | fraction unbound [14]: 0.066 | DC50 [15]: 1.5 nM | Emax [16]: 94.8% | clearance [17]: 3 mL/min/kg | blood plasma ratio [18]: 1.3 | DC50 [19]: 57 nM | AUC [20]: 3.6 µM·h | Papp A→B [21]: < 0.01 ×10⁻⁶ cm/s | blood plasma ratio [22]: 6 | Emax [23]: 79% | fraction unbound [24]: < 0.015 | Emax [25]: 97% | logD [26]: 3.7 | blood plasma ratio [27]: 0.3 | Activity [3]: 50%

SMILES: CN1CCN([C@@H]2CCCN(c3cnc(C(N)=O)c(Nc4ccc(C5CCN(CCCNc6cccc7c6C(=O)N(C6CCC(=O)NC6=O)C7=O)CC5)cc4)n3)C2)C1=O (stereo partly specified)
DC50 [4]: 2.4 nM | DC50 [28]: 11 nM | Emax [23]: 87% | Emax [25]: 95%

SMILES: CN1CCN([C@@H]2CCCN(c3cnc(C(N)=O)c(Nc4ccc(C5CCN(C[C@H]6CC[C@H](Nc7cccc8c7C(=O)N(C7CCC(=O)NC7=O)C8=O)CC6)CC5)cc4)n3)C2)C1=O (stereo partly specified)
DC50 [4]: 1.6 nM | DC50 [28]: 40 nM | Emax [23]: 85% | Emax [25]: 90%

SMILES: CN1CCN([C@@H]2CCCN(c3cnc(C(N)=O)c(Nc4ccc(C5CCN(C[C@@H]6CCN(c7ccc8c(c7)C(=O)N(C7CCC(=O)NC7=O)C8=O)C6)CC5)cc4)n3)C2)C1=O (stereo partly specified)
DC50 [4]: 1.2 nM | Emax [25]: 93%

SMILES: CN1CCN([C@@H]2CCCN(c3cnc(C(N)=O)c(Nc4ccc(C5(C)CCN(C[C@H]6CCN(c7ccc8c(c7)C(=O)N(C7CCC(=O)NC7=O)C8=O)C6)CC5)cc4)n3)C2)C1=O (stereo partly specified)
Emax [1]: 96% | DC50 [2]: 0.6 nM | Activity [11]: 27%

SMILES: CN1CCN([C@@H]2CCCN(c3cnc(C(N)=O)c(Nc4ccc(C5CCN(Cc6ccc7c(c6)C(=O)N(C6CCC(=O)NC6=O)C7=O)CC5)cc4)n3)C2)C1=O (stereo partly specified)
Emax [1]: 76% | DC50 [2]: 17 nM
